Assay results: paper PMC8344252, “Carbonic anhydrase activation profile of indole-based derivatives” (Journal of Enzyme Inhibition and Medicinal Chemistry, 2021)
Values belong to the compound of their own block, whether it stands above or below them.

What was measured:
hCA I = hCA I (Homo sapiens, UniProt P00915); assay: CA activation, stopped-flow CO2 hydrase assay; assay type: biochemical; settings: activation constant; mean from 3 assays, errors ±5–10%
Experimental: (§1) A stopped-flow method[38] has been used for assaying the CA catalysed CO2 hydration activity with Phenol red as indicator, working at the absorbance maximum of 557 nm, following the initial rates of the CA-catalysed CO2 hydration reaction for 10–100 s. For each activator, at least six traces of the initial 5–10% of the reaction have been used for determining the initial velocity. The uncatalyzed rates were determined in the same manner and subtracted from the total observed rates. Stock solutions of activator (0.1 mM) were prepared in distilled-deionized water and dilutions up to 0.1 nM were done thereafter with the assay buffer. The activation constant (KA), defined similarly with the inhibition constant (KI), was obtained by considering the classical Michaelis–Menten equation (Equation (3), which has been fitted by nonlinear least squares by using PRISM 3: v=vmax/{1+KM/[S](1+[A]f/KA)} (3) [drawing 4] where [A]f is the free concentration of activator.
(§2) Working at substrate concentrations considerably lower than KM ([S]≪KM), and considering that [A]f can be represented in the form of the total concentration of the enzyme ([E]t) and activator ([A]t), the obtained competitive steady-state equation for determining the activation constant is given by Equation 4: v=v0KA/{KA+[A]t–0.5{([A]t+[E]t+ KA)–([A]t+[E]t+ KA)^2–4[A]t[E]t^1/2}} (4) [drawing 5] where v0 represents the initial velocity of the enzyme-catalysed reaction in the absence of an activator[39–42]. Enzyme concentrations in the assay system were in the range of 6.5–12.0 nM.

hCA II = hCA II (Homo sapiens, UniProt P00918); assay: CA activation, stopped-flow CO2 hydrase assay; assay type: biochemical; settings: for KA ratio [hCA II/hCA VII]: KA ratio for the indicated enzyme isoforms, value in square brackets; for KA hCA II: activation constant, mean from 3 assays, errors ±5–10%
Experimental: as §1, §2

hCA VA = hCA VA (Homo sapiens, UniProt P35218); assay: CA activation, stopped-flow CO2 hydrase assay; assay type: biochemical; settings: for KA ratio [hCA VA/hCA VII]: KA ratio for the indicated enzyme isoforms, value in square brackets; for KA hCA VA: activation constant, mean from 3 assays, errors ±5–10%; for hCA VA activation, judged in words: text comment on KA values
Sequence of hCA VA (P35218 39-305): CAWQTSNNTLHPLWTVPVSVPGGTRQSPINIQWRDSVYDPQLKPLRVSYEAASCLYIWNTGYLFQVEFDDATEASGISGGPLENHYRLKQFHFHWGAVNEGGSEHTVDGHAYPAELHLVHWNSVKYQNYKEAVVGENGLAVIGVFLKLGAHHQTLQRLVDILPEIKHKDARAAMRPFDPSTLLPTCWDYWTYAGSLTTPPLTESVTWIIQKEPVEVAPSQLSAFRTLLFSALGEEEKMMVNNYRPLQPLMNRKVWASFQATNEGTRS
Experimental: as §1, §2

hCA VII = hCA VII (Homo sapiens, UniProt P43166); assay: CA activation, stopped-flow CO2 hydrase assay; assay type: biochemical; settings: activation constant; mean from 3 assays, errors ±5–10%
Sequence of hCA VII (P43166 whole entry): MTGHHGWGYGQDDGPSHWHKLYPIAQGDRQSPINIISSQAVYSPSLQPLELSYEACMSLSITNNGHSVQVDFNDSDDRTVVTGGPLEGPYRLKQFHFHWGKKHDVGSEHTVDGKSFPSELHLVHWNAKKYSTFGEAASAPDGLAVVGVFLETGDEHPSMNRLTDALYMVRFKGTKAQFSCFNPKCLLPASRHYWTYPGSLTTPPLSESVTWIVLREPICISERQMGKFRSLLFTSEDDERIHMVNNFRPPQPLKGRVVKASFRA
Experimental: as §1, §2

[1] = system: C20 human microglial cell line; assay: Cell viability (MTS) assay; assay type: cell-based; settings: 24 h; for Cell viability of C20 cells: highest tested concentration (10 µM), vs vehicle (DMSO) control
Experimental: (§3) All materials for cell culturing were obtained by Corning, New York, USA, and all used reagents were purchased by Sigma-Aldrich (Saint Louis, MO, USA). The human microglial cell line C20, originally generated by David Alvarez-Carbonell et al.[52], was grown in DMEM-F12 medium supplemented with 10% of FBS, 100 U/mL penicillin, 0.1 mg/mL streptomycin, and neomycin (600 μg/mL), as a selector of the immortalised telomerase-expressing cells. Cells were kept at 37 °C under a humidified atmosphere with […] and 5% CO2. Viable cells (identified by counting trypan-blue-excluding cellular elements) were plated at a density of 100,000 cells each well in a 24-well plate. To evaluate the ability of target compounds to modulate the cellular viability and brain-derived neurotrophic factor (BDNF) release, C20 cells were challenged with CAAs.
C20 cells were seeded in 96-well microplates at a density of 5000 cells/well and maintained in complete culture media. The day after the seed, cells were treated with CAAs 7, 8, and 9 for 24 h (1 and 10 µM). The cell viability was determined using the [3–(4,5-dimethylthiazol-2-yl)-5–(3-carboxymethoxyphenol)-2–(4-sulfophenyl)-2H-tetrazolium, inner salt] (MTS) assay according to the manufacturer’s instructions (Promega, Milano, Italy). This tetrazolium dye can be reduced by the metabolic reducing agents NADH and NADPH to a water-soluble formazan salt. The amount of formazan produced is considered to be a marker of cell viability. The MTS reagent was added to treated C20 cells and the colorimetric conversion of formazane was quantified after 1 h by measuring the absorbance at 490 nm (EnSightTM multimode plate reader, equipped with Kaleido Data Acquisition and Analysis Software).

[2] = system: BDNF release from C20 human microglial cells; assay: BDNF enzyme-linked immunosorbent assay on conditioned medium; assay type: cell-based; settings: 10 µM, 2 h treatment, medium collected after 24 h, ELISA, normalised on crystal violet
Experimental: as §3, with “To evaluate the ability of target compounds to modulate the cellular viability and brain-derived neurotrophic factor (BDNF) release, C20 cells were challenged with CAAs.” left out
C20 cells were seeded in 24-well microplates at a density of 100,000 cells/well and maintained in complete culture media. […] At the end of the 24 h, the levels of BDNF were measured in the C20 conditioned medium using an enzyme-linked immunosorbent assay (ELISA) Kit (SEA011Mi 96 Tests, Cloude-Clone Corp., CCC, USA), accordingly to manufacture instructions. […] The enzyme-substrate reaction was terminated by the addition of sulphuric acid solution and the colour change was measured spectrophotometrically at a wavelength of 450 nm ± 10 nm. The concentration of BDNF in the samples was then determined by comparing the O.D. of the samples to the standard curve. […]

Sequence of hCA I (P00915 whole entry): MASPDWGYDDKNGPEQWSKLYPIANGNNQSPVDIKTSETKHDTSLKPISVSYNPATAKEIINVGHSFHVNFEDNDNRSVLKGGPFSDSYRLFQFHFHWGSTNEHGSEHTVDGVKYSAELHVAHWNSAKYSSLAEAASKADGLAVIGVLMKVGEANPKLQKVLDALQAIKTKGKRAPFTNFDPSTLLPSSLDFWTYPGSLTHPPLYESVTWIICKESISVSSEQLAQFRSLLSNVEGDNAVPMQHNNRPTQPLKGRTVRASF

Compound: CCOC(=O)c1cn(Cc2ccccc2)c2ccc(OCCN(C)C)cc12 [Compound 9, Ethyl 5-(2-(dimethylamino)ethoxy)-1-benzyl-1H-indole-3-carboxylate]
KA hCA I (hCA I): > 100 µM
KA ratio [hCA II/hCA VII] (hCA II): > 12.2
KA hCA II (hCA II): > 100 µM
KA ratio [hCA VA/hCA VII] (hCA VA): 3.5
KA hCA VA (hCA VA): 29.1 µM
KA hCA VII (hCA VII): 8.2 µM
Cell viability of C20 cells [1]: slight, although not statistically significant, reduction in cell viability
melting point: 69 to 71 °C

Compound: CCN(CC)CCOc1ccc2c(c1)c(C(=O)NCc1ccccc1)cn2Cc1ccccc1 [Compound 7, 5-(2-(Diethylamino)ethoxy)-N,1-dibenzyl-1H-indole-3-carboxamide]
KA hCA I (hCA I): > 100 µM
KA ratio [hCA II/hCA VII] (hCA II): > 13.3
KA hCA II (hCA II): > 100 µM
KA ratio [hCA VA/hCA VII] (hCA VA): 3.2
KA hCA VA (hCA VA): 24.4 µM
KA hCA VII (hCA VII): 7.5 µM
Cytotoxic activity on C20 cells ([1]; 1 and 10 µM, any of the tested concentrations): did not exhibit cytotoxic activity
Cell viability of C20 cells [1]: a little increase in cell viability
BDNF levels in medium of C20 cells [2]: significant increase in BDNF levels
melting point: 57 to 59 °C

Compound: CN(C)CCCOc1ccc2c(c1)c(C(=O)C(=O)NCCCO)cn2Cc1ccccc1 [Compound 3, 2-(5-(3-(Dimethylamino)propoxy)-1-benzyl-1H-indol-3-yl)-N-(3-hydroxypropyl)glyoxamide]
KA hCA I (hCA I): > 100 µM
KA ratio [hCA II/hCA VII] (hCA II): > 9.4
KA hCA II (hCA II): > 100 µM
KA ratio [hCA VA/hCA VII] (hCA VA): 4.8
KA hCA VA (hCA VA): 50.9 µM
hCA VA activation, judged in words (hCA VA): poor activity
KA hCA VII (hCA VII): 10.6 µM
melting point: 111 to 113 °C

Compound: CN(C)CCCOc1ccc2c(c1)c(C(=O)NCCO)cn2Cc1ccccc1 [Compound 5, 5-(3-(Dimethylamino)propoxy)-1-benzyl-N-(2-hydroxyethyl)-1H-indole-3-carboxamide]
KA hCA I (hCA I): > 100 µM
KA ratio [hCA II/hCA VII] (hCA II): > 9.6
KA hCA II (hCA II): > 100 µM
KA ratio [hCA VA/hCA VII] (hCA VA): 2.7
KA hCA VA (hCA VA): 28.0 µM
KA hCA VII (hCA VII): 10.4 µM

Compound: CCN(CC)CCNC(=O)C(=O)c1cn(Cc2ccccc2)c2ccc(OCCO)cc12 [Compound 2, 2-(5-(2-Hydroxyethoxy)-1-benzyl-1H-indol-3-yl)-N-(2-(diethylamino)ethyl)glyoxylamide]
KA hCA I (hCA I): 88.9 µM
KA ratio [hCA II/hCA VII] (hCA II): > 10.0
KA hCA II (hCA II): > 100 µM
KA ratio [hCA VA/hCA VII] (hCA VA): 2.9
KA hCA VA (hCA VA): 28.7 µM
KA hCA VII (hCA VII): 10.0 µM

Compound: CN(C)CCCNC(=O)C(=O)c1cn(Cc2ccccc2)c2ccc(OCCO)cc12 [Compound 1, 2-(5-(2-Hydroxyethoxy)-1-benzyl-1H-indol-3-yl)-N-(3-(dimethylamino)propyl)glyoxylamide]
KA hCA I (hCA I): > 100 µM
KA ratio [hCA II/hCA VII] (hCA II): > 9.3
KA hCA II (hCA II): > 100 µM
KA ratio [hCA VA/hCA VII] (hCA VA): 2.3
KA hCA VA (hCA VA): 25.0 µM
KA hCA VII (hCA VII): 10.8 µM

KA hCA I (hCA I): 2.1 µM
KA hCA II (hCA II): 125 µM
KA hCA VA (hCA VA): 0.010 µM
KA hCA VII (hCA VII): 37.5 µM
Compound: NCCc1c[nH]cn1 [Histamine, reference compound]

Compound: CN(C)CCOc1ccc2c(c1)c(C(=O)NCCO)cn2Cc1ccccc1 [Compound 6, 5-(2-(Dimethylamino)ethoxy)-1-benzyl-N-(2-hydroxyethyl)-1H-indole-3-carboxamide]
KA hCA I (hCA I): > 100 µM
KA ratio [hCA II/hCA VII] (hCA II): > 9.3
KA hCA II (hCA II): > 100 µM
KA ratio [hCA VA/hCA VII] (hCA VA): 2.5
KA hCA VA (hCA VA): 26.8 µM
KA hCA VII (hCA VII): 10.7 µM

Compound: CCOC(=O)c1cn(Cc2ccccc2)c2ccc(OCCCN(C)C)cc12 [Compound 8, Ethyl 5-(3-(dimethylamino)propoxy)-1-benzyl-1H-indole-3-carboxylate]
KA hCA I (hCA I): 69.1 µM
KA ratio [hCA II/hCA VII] (hCA II): > 13.9
KA hCA II (hCA II): > 100 µM
KA ratio [hCA VA/hCA VII] (hCA VA): 8.3
KA hCA VA (hCA VA): 59.8 µM
hCA VA activation, judged in words (hCA VA): poor activity
KA hCA VII (hCA VII): 7.2 µM
Cell viability of C20 cells [1]: slight, although not statistically significant, reduction in cell viability
melting point: 58 to 60 °C

Compound: CCN(CC)CCOc1ccc2c(c1)c(C(=O)C(=O)NCCO)cn2Cc1ccccc1 [Compound 4, 2-(5-(2-(Diethylamino)ethoxy)-1-benzyl-1H-indol-3-yl)-N-(2-hydroxyethyl)glyoxamide]
KA hCA I (hCA I): > 100 µM
KA ratio [hCA II/hCA VII] (hCA II): > 11.0
KA hCA II (hCA II): > 100 µM
KA ratio [hCA VA/hCA VII] (hCA VA): 3.8
KA hCA VA (hCA VA): 34.4 µM
KA hCA VII (hCA VII): 9.1 µM
melting point: 116 to 118 °C
